Measurements reported in ChEMBL document CHEMBL1201862, “PubChem BioAssay data set” (2004).
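Method: 48-hour compound exposure of cells in 96-well plates, five concentrations, linear interpolation of endpoints. At the GI50, growth is halved.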 Calls of active or inactive are those of the source. Cut-off read from the data, not from the text of the source: active = GI50 up to about 1.1 µM and inactive = higher.

Experiments:
Assay in all cases: NCI anticancer screen, dose series, 48 h
[1] = test system: HCT-15
[2] = test system: KM12
[3] = test system: EKVX
[4] = test system: MOLT-4
[5] = test system: UO-31
[6] = test system: SW-620
[7] = test system: DU-145
[8] = test system: HCC 2998
[9] = test system: NCI/ADR-RES
[10] = test system: NCI-H460
[11] = test system: OVCAR-5
[12] = test system: M14
[13] = test system: SNB-75
[14] = test system: NCI-H522
[15] = test system: NCI-H23
[16] = test system: RPMI-8226
[17] = test system: 786-0
[18] = test system: MDA-MB-435
[19] = test system: SK-MEL-5
[20] = test system: TK-10
[21] = test system: HT-29
[22] = test system: SK-OV-3
[23] = test system: CCRF-CEM
[24] = test system: MCF7
[25] = test system: T47D
[26] = test system: OVCAR-8
[27] = test system: IGROV-1
[28] = test system: HCT-116
[29] = test system: HOP-92
[30] = test system: SN12C
[31] = test system: HOP-62
[32] = test system: UACC-257
[33] = test system: A549
[34] = test system: COLO 205
[35] = test system: RXF 393
[36] = test system: SF-268
[37] = test system: U-251
[38] = test system: Hs-578T
[39] = test system: UACC-62
[40] = test system: OVCAR-4
[41] = test system: Malme-3M
[42] = test system: SF-295
[43] = test system: CAKI-1
[44] = test system: K562
[45] = test system: SR
[46] = test system: SK-MEL-2
[47] = test system: BT-549
[48] = test system: ACHN
[49] = test system: PC-3
[50] = test system: SK-MEL-28
[51] = test system: NCI-H226
[52] = test system: MDA-MB-231

**Q.** For C=C1C(=O)O[C@H]2C1C[C@H](O)[C@@]1(C)OC1CC[C@@]1(C)O[C@H]21 (some centres undefined), which GI50 [1] is on record?
**A.** 18.7 µM

**Q.** What about the GI50 [2] of the same compound?
**A.** 25.1 µM (inactive)

**Q.** What about the GI50 [3] of the same compound?
**A.** 18.2 µM (inactive)

**Q.** What about the GI50 [4] of the same compound?
**A.** 10.1 µM (inactive)

**Q.** And the GI50 [5]?
**A.** 17.1 µM (inactive)

**Q.** And the GI50 [6]?
**A.** 13.6 µM (inactive)

**Q.** And the GI50 [7]?
**A.** 34.5 µM (inactive)

**Q.** What about the GI50 [8] of the same compound?
**A.** 14.7 µM (inactive)

**Q.** What about the GI50 [9] of the same compound?
**A.** 20.9 µM (inactive)

**Q.** And the GI50 [10]?
**A.** > 100 µM (inactive)

**Q.** And the GI50 [11]?
**A.** 16.9 µM (inactive)

**Q.** What about the GI50 [12] of the same compound?
**A.** 15.5 µM (inactive)

**Q.** What about the GI50 [13] of the same compound?
**A.** 80.4 µM (inactive)

**Q.** And the GI50 [14]?
**A.** 2.79 µM (inactive)

**Q.** What about the GI50 [15] of the same compound?
**A.** 19.5 µM (inactive)

**Q.** And the GI50 [16]?
**A.** 6.65 µM (inactive)

**Q.** What about the GI50 [17] of the same compound?
**A.** 21 µM (inactive)

**Q.** And the GI50 [18]?
**A.** 23.5 µM (inactive)

**Q.** And the GI50 [19]?
**A.** 20.4 µM (inactive)

**Q.** What about the GI50 [20] of the same compound?
**A.** 19.8 µM (inactive)

**Q.** What about the GI50 [21] of the same compound?
**A.** 32.5 µM (inactive)

**Q.** What about the GI50 [22] of the same compound?
**A.** 61.8 µM (inactive)

**Q.** What about the GI50 [23] of the same compound?
**A.** 2.61 µM (inactive)

**Q.** And the GI50 [24]?
**A.** 15.4 µM (inactive)

**Q.** And the GI50 [25]?
**A.** 19.3 µM (inactive)

**Q.** And the GI50 [26]?
**A.** 19 µM (inactive)

**Q.** And the GI50 [27]?
**A.** 14.9 µM (inactive)

**Q.** And the GI50 [28]?
**A.** 16.6 µM (inactive)

**Q.** What about the GI50 [29] of the same compound?
**A.** 20.6 µM (inactive)

**Q.** And the GI50 [30]?
**A.** 17.4 µM (inactive)

**Q.** What about the GI50 [31] of the same compound?
**A.** 27.6 µM (inactive)

**Q.** What about the GI50 [32] of the same compound?
**A.** 18.1 µM (inactive)

**Q.** What about the GI50 [33] of the same compound?
**A.** > 100 µM (inactive)

**Q.** And the GI50 [34]?
**A.** 4.88 µM (inactive)

**Q.** What about the GI50 [35] of the same compound?
**A.** 22.5 µM (inactive)

**Q.** And the GI50 [36]?
**A.** 43.2 µM (inactive)

**Q.** And the GI50 [37]?
**A.** > 100 µM (inactive)

**Q.** And the GI50 [38]?
**A.** 37.3 µM (inactive)

**Q.** What about the GI50 [39] of the same compound?
**A.** 14.6 µM (inactive)

**Q.** What about the GI50 [40] of the same compound?
**A.** 13.6 µM (inactive)

**Q.** What about the GI50 [41] of the same compound?
**A.** 12 µM (inactive)

**Q.** What about the GI50 [42] of the same compound?
**A.** > 100 µM (inactive)

**Q.** And the GI50 [43]?
**A.** 17.7 µM (inactive)

**Q.** And the GI50 [44]?
**A.** 4.28 µM (inactive)

**Q.** And the GI50 [45]?
**A.** 17.8 µM (inactive)

**Q.** And the GI50 [46]?
**A.** 26.5 µM (inactive)

**Q.** What about the GI50 [47] of the same compound?
**A.** 13.8 µM (inactive)

**Q.** What about the GI50 [48] of the same compound?
**A.** 18.1 µM (inactive)

**Q.** And the GI50 [49]?
**A.** 17.8 µM (inactive)

**Q.** What about the GI50 [50] of the same compound?
**A.** 19.4 µM (inactive)

**Q.** For O=c1ccn(C2OC(CO)C(O)C2O)c(=O)[nH]1 (centres undefined), which GI50 [7] is on record?
**A.** > 1000 µM (inactive)

**Q.** And the GI50 [11]?
**A.** > 1000 µM (inactive)

**Q.** And the GI50 [12]?
**A.** > 1000 µM (inactive)

**Q.** What about the GI50 [14] of the same compound?
**A.** > 1000 µM (inactive)

**Q.** And the GI50 [51]?
**A.** > 1000 µM (inactive)

**Q.** And the GI50 [32]?
**A.** > 1000 µM (inactive)

**Q.** What about the GI50 [52] of the same compound?
**A.** > 1000 µM (inactive)

**Q.** What about the GI50 [43] of the same compound?
**A.** > 1000 µM (inactive)

**Q.** And the GI50 [47]?
**A.** > 1000 µM (inactive)
